According to patent US8778954B2, “Phenylpyridine derivative and medicinal agent comprising same” (Kowa Company, Ltd., priority 2009, dated 2014):

Key:
[1] = system: Zucker diabetic fatty (ZDF) rats; assay: Activity for diabetic nephropathy in Zucker diabetic fatty rats; assay type: in vivo, rat; settings: 3 mg/kg once a day for 15 weeks, FIG. 5
Procedure: By using 8-week old Zucker diabetic fatty (ZDF) rats, the body weight, the elimination amount of urinary total protein (UTP), the plasma triglyceride concentration (TG), and the plasma total cholesterol concentration (TC) of each rat were measured before administration of the medicine, and group separation was performed by blocking assignment so that there was no variation of these values between respective groups. Solvent control (0.5% MC), 3 mg/kg telmisartan, 3 mg/kg of the compound of Example 21, and 3 mg/kg of the compound of Example 23 were administered iteratively for 15 weeks once a day. UTP, TG, and TC were measured according to a general method during the administration period at 4, 8, 12, and 15 weeks after the administration.
Vehicle, Telmisartan, Compound 23, and Compound 21 in FIGS. 4, 5, and 6 represent solvent control, telmisartan, the compound of Example 23, and the compound of Example 21, respectively. The horizontal axis of FIG. 4-1 represents time (weeks after administration), and the vertical axis represents the elimination amount of urinary total protein per 18 hours. The data in FIG. 4-1 represents average values of each individual in each point, wherein -●- represents Vehicle (solvent control), -♦- represents Telmisartan, -▪- represents Compound 23 (the compound of Example 23), and -▴- represents Compound 21 (the compound of Example 21). The vertical axis of FIG. 4-2 represents the elimination amount of urinary total protein per 18 hours. The data in FIG. 4-2 represents individual values and average values of each individual +standard deviation.
The vertical axis of FIG. 5 represents the plasma triglyceride concentration. The data in FIG. 5 represents individual values and average values of each individual.
The vertical axis of FIG. 6 represents the plasma total cholesterol concentration. The data in FIG. 6 represents individual values and average values of each individual.
Furthermore, it was believed that one reason for the potent activity may be related to improving activity of lipid metabolism, and it is believed that the potent activity is attributed to activities other than the angiotensin receptor antagonistic activity.

human PPARγ2 = target: T1, human PPARγ2 (Homo sapiens, UniProt P37231); assay: PPARγ activation activity, Gal4-PPARγ2 LBD luciferase transfection assay using COS7 cells; assay type: cell-based; settings: Gal4-human PPARγ2 LBD chimera, 16 hours, rosiglitazone = 100%
T1 construct: the amino acids 182 to 505 of human PPARγ2; expressed in transfected cells; host or cells: COS7 cells (African green monkey kidney)
T1 sequence (P37231 182-505): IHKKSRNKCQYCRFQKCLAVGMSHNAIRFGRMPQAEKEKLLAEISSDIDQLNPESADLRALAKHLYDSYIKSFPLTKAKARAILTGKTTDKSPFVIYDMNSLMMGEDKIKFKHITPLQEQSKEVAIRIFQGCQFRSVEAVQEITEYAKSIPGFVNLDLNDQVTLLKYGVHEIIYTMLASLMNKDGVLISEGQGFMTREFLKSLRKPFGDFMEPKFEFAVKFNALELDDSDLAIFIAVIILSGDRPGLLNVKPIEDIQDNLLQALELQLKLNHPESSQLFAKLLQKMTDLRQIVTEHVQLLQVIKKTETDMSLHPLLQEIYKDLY
Procedure: The agonistic activity of the compounds of the invention on PPARγ was measured based on the transfection assay using COS7 cells (DS Pharma Biomedical Co., Ltd., Osaka, Japan), which are the cell line derived from the kidney of the African green monkey. COS7 cells were cultured under 5% CO2 concentration, and DMEM medium containing 10% fetal bovine serum, glutamic acid, and antibiotics was used as a medium.
As an expression vector, a chimera in which DNA binding domain of Gal4, which is a yeast transcription factor, and ligand binding domain of human PPARγ2 are fused, i.e., a fused product between the amino acids 1 to 147 of Gal4 transcription factor and the amino acids 182 to 505 of human PPARγ2, was used. Furthermore, as a reporter vector, a firefly luciferase containing five copies of Gal4 recognition sequence in the promoter region was used. Plasmid transfection to the cells was performed according to a method which uses jetPEI (trade name, manufactured by Funakoshi Co., Ltd., Tokyo, Japan). Furthermore, β-galactosidase expression vector was employed as an internal standard.
After the transfection of the cells, the medium was replaced with a DMEM medium (containing 1% serum) added with the test compound, and the cells were further cultured for 16 hours. After that, the luciferase activity and β-galactosidase activity in the cell lysis solution were measured.
For the present test, dimethyl sulfoxide (DMSO) was used for dissolution and dilution of the test compounds, and during the cell treatment, the DMSO concentration in DMEM medium (containing 1% serum) was adjusted to 0.1%. As a positive compound, rosiglitazone (trade name, manufactured by ALEXIS Corporation, Switzerland) was used. The luciferase activity (%) of the test compounds (1 to 30 μmol/L) was calculated when the luciferase activity of rosiglitazone (3 to 10 μmol/L) is 100% and the luciferase activity in the absence of the test compound is 0%. The 50% effective concentration of the test compound (EC50, 50% effect concentration) was calculated by using SAS Preclinical Package Ver 5.0 (trade name, manufactured by SAS institute Japan Co., Tokyo, Japan), which is a statistical analysis program.
EC50 values of these compounds are described in Table 2. […] Under the same condition, the PPARγ activation activity of telmisartan, i.e., EC50, was 1 to 5 μM.

db/db mice = assay: Impaired glucose tolerance improving activity in type 2 diabetes model mouse; assay type: in vivo; settings: oral once a day, Example 23 10 mg/kg, Example 21 30 mg/kg, telmisartan 30 mg/kg
Procedure: By using 7-week old db/db mice, the body weight and the plasma glucose concentration of each mouse were measured before administration of the medicine, and group separation was performed by blocking assignment so that there was no variation of these values between respective groups. Solvent control (0.5% MC), 5 mg/kg rosiglitazone, 30 mg/kg telmisartan, 10 mg/kg of the compound of Example 23, and 30 mg/kg of the compound of Example 21 were orally administered iteratively for 4 weeks, once a day. Blood collecting was performed from the orbital vein plexus, and the plasma glucose concentration was measured at 2 weeks after the initiation of the administration. Furthermore, oral glucose tolerance test was performed at 4 weeks after the initiation of the administration. Specifically, the mouse was fasted for 24 hours from the night before the glucose tolerance test, and then a glucose solution was orally administered at a dose of 2 g/kg. The blood was collected from the tail vein of the mouse at 15, 30, 60, and 120 minutes after the administration of the glucose solution, and the concentration of the plasma glucose was measured. The area surrounded with the measured plasma glucose concentration and the time was taken as the area under the curve (AUC), and AUC for 120 minutes after administration of the glucose solution was estimated from the trapezoidal method.
Vehicle, Rosiglitazone, Telmisartan, Compound 23, and Compound 21 in FIGS. 2 and 3 represent solvent control, rosiglitazone, telmisartan, the compound of Example 23, and the compound of Example 21, respectively. The vertical axis of FIG. 2 represents the plasma glucose concentration. The data in FIG. 2 represents individual values and average values of each individual. The vertical axis of FIG. 3 represents the area under the curve surrounded with the plasma glucose concentration and the time (for 120 minutes after administration of the glucose solution). The data in FIG. 3 represents individual values and average values of each individual. […] Such activities were not confirmed for the telmisartan administration group.

CCCc1nc2c(C)cc(-c3nc4ccccc4n3C)cc2n1Cc1ccc(-c2ccccc2C(=O)O)cc1 [telmisartan, reference compound]
plasma triglyceride concentration [1]: such activity was not found | EC50 (human PPARγ2): 1000 to 5000 nM | plasma glucose concentration (db/db mice; 2 weeks after initiation, FIG. 2): not confirmed | AUC of plasma glucose in the glucose tolerance test (120 minutes after glucose solution) (db/db mice; 4 weeks, glucose 2 g/kg, FIG. 3): not confirmed
